From US20120129927A1, “New Anthraquinone Derivatives” (SEALIFE PHARMA GMBH, priority 2009, published 2012)
Converted amounts (≈) assume the structure as drawn. “Also recorded” adds a separate entry of the source. Like-named read-outs stand apart in the source and are kept apart here.

Legend:
[1] = system: Streptococcus pneumoniae; test: MIC test (titration method, EUCAST); format: cell-based; conditions: for MIC: read-out: MHK (MIC) STR
Protocol: (§1) The activities of the novel compounds were tested in two different screening systems. The antibacterial and antifungal activities were examined by means of an MIC test, MIC standing for “minimal inhibitory concentration” and referring to the lowest concentration of a substance at which no proliferation of microorganisms can be observed with the naked eye. The MIC is determined by means of a so called titration method in which the substance is diluted and, subsequently, the pathogen is added to it.
(§2) Usually, this method is applied in order to determine the concentration of an antibiotic which only just inhibits the growth of a bacterial strain. The MIC is indicated in micrograms per milliliter (μg/ml), and the dilutions are conventionally carried out in log 2 steps. Herein, a starting concentration of 250 μg/ml was diluted several times, to the double volume in each case, resulting in test concentrations of 250 μg/ml, 125 μg/ml, 62.5 μg/ml, 31.2 μg/ml, 15.6 μg/ml, 7.8 μg/ml, etc. Thus, lower values indicate a better activity as an anti-infective.
(§3) The tests were carried out according to the standards of EUCAST (European Committee for Antimicrobial Susceptibility Testing) and according to the AFST-protocol (“Antifungal Susceptibility Testing” protocol) of the European Society of Clinical Microbiology and Infectious Diseases (ESCMID).
(§4) In the following Table 3, the test results indicating the anti-infective action of 3-O-acetyl altersolanol M, alterporriol I and J as well as of some known and structurally similar comparative substances against some multi-resistant bacteria and fungi (all of which were kindly placed at our disposal by Prof Georgopulos from the Medical University of Vienna). The data constituting averages of the values obtained in multiple test runs.

[2] = system: Staphylococcus epidermis; test: MIC test (titration method, EUCAST); format: cell-based; conditions: for MIC: read-out: MHK (MIC) SE
Protocol: as §1, §2, §3, §4

[3] = system: methicillin-resistant Staphylococcus aureus; test: MIC test (titration method, EUCAST); format: cell-based; conditions: for MIC: MRSA, read-out: MHK (MIC) MRSA
Protocol: as §1, §2, §3, §4

[4] = system: bacteria and fungi; conditions: Aly et al., Phytochemistry 69; cited from earlier work
[5] = system: Aspergillus fumigatus or faecalis; test: MIC test (AFST protocol); format: cell-based; conditions: multi-resistant Aspergillus fumigatus or faecalis, averages of multiple test runs; for MIC: read-out: MHK (MIC) ASP
Protocol: as §1, §2, §3, §4

[6] = system: Klebsiella sp.; test: MIC test (titration method, EUCAST); format: cell-based; conditions: multi-resistant Klebsiella sp., averages of multiple test runs
Protocol: as §1, §2, §3, §4

[7] = system: Enterococcus faecalis or faecium; test: MIC test (titration method, EUCAST); format: cell-based; conditions: for MIC: read-out: MHK (MIC) EK
Protocol: as §1, §2, §3, §4

[8] = system: melanoma cells; test: Three-dimensional tumor test in matrix gel; format: cell-based; conditions: 30, 50 or 3,000 μg/ml, 37° C.
Protocol: In addition to the above two-dimensional test, the cytotoxic action of 3-O-acetyl altersolanol M was also examined in an innovative three-dimensional test system. In this test, small tumors are grown in a matrix gel, in which the activity of an anti-cancer agent may be directly tested by adding said agent at different concentrations. A blank, i.e. melanoma cells without any cytotoxic agent, and an equal amount of melanoma cells together with 30, 50 or 3,000 μg/ml of 3-O-acetyl altersolanol M were incubated in the matrix gel for 120 hours at 37° C.

[9] = Electrical Cell Substrate Impedance Sensing (ECIS) test; format: cell-based; conditions: results not indicated, comparison only
[10] = system: Pseudomonas aeruginosa; test: MIC test (titration method, EUCAST); format: cell-based; conditions: multi-resistant Pseudomonas aeruginosa, averages of multiple test runs
Protocol: as §1, §2, §3, §4

[11] = system: E. coli; test: MIC test (titration method, EUCAST); format: cell-based; conditions: Escherichia coli, read-out: MHK (MIC) EC
Protocol: as §1, §2, §3, §4

[12] = system: melanoma cells; test: Alamar Blue assay using melanoma cells; format: cell-based; conditions: for inhibition at 10 µg/mL: read-out: inhibition / reduction of the number of melanoma cells
Protocol: In this test, the dye resazurin is used as an indicator for measuring the cytotoxicity of substances. […] Depending on the degree of their toxicity, cytotoxic agents decelerate or stop this reduction.
In the course of this experiment, melanoma cells were treated with several concentrations of 3-O-acetyl altersolanol M, i.e. with 1, 10, and 50 μg/ml, with altersolanol K and alterporriol F as comparative substances, as well as with alterporriol I+J, i.e. compound (5) of the present invention, at respective concentrations of 10 μg/ml, and incubated for 48 h, whereafter the samples' fluorescence was determined spectrophotometrically at 570/600 nm, the fluorescence being proportional to the number of surviving cells in the samples.
The measurement results were related to the fluorescence of a blank, to which no cytotoxic agent had been added, and are shown in a graph in FIG. 1.

[13] = Yagi et al., Phytochemistry 34(4); cited from earlier work
[14] = system: Gram-positive bacteria and the Gram-negative species Pseudomonas aeruginosa; conditions: Okamura et al., Phytochemistry 42(1); cited from earlier work
[15] = multi-resistant Streptococcus pneumoniae, averages of multiple test runs
[16] = multi-resistant Staphylococcus epidermis, averages of multiple test runs
[17] = methicillin-resistant Staphylococcus aureus, averages of multiple test runs
[18] = multi-resistant Enterococcus faecalis or faecium, averages of multiple test runs
[19] = multi-resistant E. coli, averages of multiple test runs
[20] = 10 μg/ml, 48 h, relative to blank

Molecule: COC1=CC(=O)c2c(O)c3c(c(O)c2C1=O)C[C@](C)(O)[C@H](O)[C@H]3O [Bostrycin]
- MIC [1, 15]: 62.5 µg/mL (≈ 186 µM)
- MIC [2, 16]: 125 µg/mL (≈ 372 µM)
- MIC [3, 17]: 125 µg/mL (≈ 372 µM)

Molecule: COc1cc(O)c2c(c1)[C@H](O)[C@@H]1[C@@H](C2=O)[C@H](O)[C@@H](O)[C@@](C)(O)[C@@H]1O [Ampelanol]
- activity against bacteria and fungi [4]: do not show any activity against bacteria and fungi

Molecule: COc1cc(O)c2c(c1-c1c(OC)cc(O)c3c1C(=O)C1=C(C3=O)[C@H](O)[C@@H](O)[C@@](C)(O)[C@@H]1O)C(=O)C1=C(C2=O)[C@H](O)[C@@H](O)[C@@](C)(O)[C@@H]1O [alterporriol D]
- activity against bacteria and fungi [4]: do not show any activity against bacteria and fungi

Molecule: COc1cc(O)c2c(c1)C(=O)[C@H]1C[C@](C)(O)[C@H](O)C[C@@H]1[C@H]2O [Altersolanol J]
- activity against bacteria and fungi [4]: do not show any activity against bacteria and fungi
- MHK (MIC) ASP [5]: 125 µg/mL
- MHK (MIC) STR [1, 15]: 15.6 µg/mL
- MHK (MIC) KL [6]: 125 µg/mL
- MHK (MIC) SE [2, 16]: 62.5 µg/mL
- MHK (MIC) EK [7, 18]: 31.2 µg/mL
- MHK (MIC) MRSA [3, 17]: 62.5 µg/mL

Molecule: COc1cc(O)c2c(c1)C(=O)C1=C(C2=O)[C@@H](O)[C@H](OC(C)=O)[C@@](C)(O)[C@@H]1O [Example 1, (1R,2S,3S,4R)-3-acetoxy-1,2,4,5-tetrahydroxy-7-methoxy-2-methyl-1,2,3,4-tetrahydroanthracene-9,10-dione]
- tumor appearance after 24 hours ([8]; 24 hours): signs of degeneration
- tumor size after 120 hours ([8]; 120 hours): clearly reduced in size
- ECIS result (in words) [9]: clearly better results than alterporriol I/J
- MIC [5]: 62.5 µg/mL (≈ 165 µM)
- MIC [1, 15]: 7.8 µg/mL (≈ 20.6 µM)
- MIC ([6]; read-out: MHK (MIC) KL): 125 µg/mL (≈ 330 µM)
- MIC [2, 16]: 7.8 µg/mL (≈ 20.6 µM)
- MIC ([10]; read-out: MHK (MIC) PS): 125 µg/mL (≈ 330 µM)
- MIC [7, 18]: 7.8 µg/mL (≈ 20.6 µM)
- MIC [3, 17]: 7.8 µg/mL (≈ 20.6 µM)
- MIC [11, 19]: 125 µg/mL (≈ 330 µM)
- inhibition at 1 µg/mL ([12]; 1 μg/ml, 48 h, relative to blank, read-out: inhibition of the number of surviving cells): > 10%
- inhibition at 10 µg/mL [12, 20]: ~50%
- surviving cells (in words) ([12]; 50 μg/ml, 48 h): hardly possible to detect any surviving cells
- cytotoxic effectiveness relative to alterporriol I/J ([12]; Alamar Blue, melanoma cells): at least 10 times

Molecule: altersolanol F
- anti-microbial activity [13]: completely ineffective

Molecule: COc1cc(O)c(C(=O)O)c(-c2cc(O)c(O)cc2C)c1 [Altenusin]
- MIC ([1]; Streptococcus pneumoniae): 31.2 µg/mL (≈ 107 µM)
- MIC ([2]; Staphylococcus): 31.2 µg/mL (≈ 107 µM)
- MIC ([7]; Enterococcus faecalis): 62.5 µg/mL (≈ 215 µM)
- MIC ([3]; Staphylococcus aureus): 31.2 µg/mL (≈ 107 µM)
- MIC [11]: 62.5 µg/mL (≈ 215 µM)

Molecule: COc1cc(O)c2c(c1-c1c(OC)cc(O)c3c1C(=O)c1cc(C)c(O)c(O)c1C3=O)C(=O)C1=C(C2=O)[C@H](O)[C@@H](O)[C@@](C)(O)[C@H]1O [Example 2, 8-(4,5,6-trihydroxy-7-methyl-2-methoxy-9,10-dioxo-9H,10H-anthracen-1-yl)-(1S,2S,3R,4S)-1,2,3,4,5-pentahydroxy-7-methoxy-2-methyl-1,2,3,4-tetrahydro-9H,10H-anthracene-9,10-dione]
- MIC [5]: 125 µg/mL (≈ 197 µM)
- MIC [1, 15]: 7.8 µg/mL (≈ 12.3 µM)
- MIC [2, 16]: 7.8 µg/mL (≈ 12.3 µM)
- MIC [7, 18]: 7.8 µg/mL (≈ 12.3 µM)
- MIC [3, 17]: 7.8 µg/mL (≈ 12.3 µM)
- result compared with comparative substances (in words) ([12]; 10 μg/ml, 48 h): slightly better results than the two comparative examples
- inhibition at 10 µg/mL [12, 20]: > 10%

Molecule: COc1cc(O)c2c(c1)[C@H](O)[C@H]1C[C@](C)(O)[C@H](O)C[C@@H]1C2=O [tetrahydroaltersolanol B]
- effect against Gram-positive bacteria and Pseudomonas aeruginosa [14]: do not disclose any effect

Molecule: altersolanol E
- anti-microbial activity [13]: anti-microbial activity; also recorded: completely ineffective

Molecule: Indole carbaldehyde (carboxaldehyde)
- MHK (MIC) STR [1, 15]: 62.5 µg/mL
- MHK (MIC) PS [10]: 125 µg/mL

Molecule: COc1cc(O)c2c(c1)C(=O)C1=C(C2=O)[C@H](O)[C@@H](O)[C@@](C)(O)[C@@H]1O [Altersolanol A, 7-methoxy-2-methyl-(1R,2S,3R,4S)-1,2,3,4-tetrahydro-1,2,3,4,5-pentahydroxy-anthracene-9,10-dione]
- activity against bacteria and fungi [4]: the most efficient of the tested substances
- anti-microbial activity [13]: anti-microbial activity
- MIC [5]: 7.8 µg/mL (≈ 23.2 µM)
- MIC [1, 15]: 7.8 µg/mL (≈ 23.2 µM)
- MIC [2, 16]: 7.8 µg/mL (≈ 23.2 µM)
- MIC [7, 18]: 15.6 µg/mL (≈ 46.4 µM)
- MIC [3, 17]: 7.8 µg/mL (≈ 23.2 µM)
- MIC [11, 19]: 62.5 µg/mL (≈ 186 µM)

Molecule: Macrosporin sulfate
- MHK (MIC) STR [1, 15]: 31.2 µg/mL

Molecule: COc1cc(O)c2c(c1)C(=O)C1=C(C[C@@H](O)[C@@](C)(O)C1)C2=O [altersolanol B]
- anti-microbial activity [13]: anti-microbial activity

Molecule: COc1cc(O)c2c(c1)C(=O)c1cc(C)c(O)cc1C2=O [Macrosporin]
- MIC [2, 16]: 62.5 µg/mL (≈ 220 µM)
- MIC [3, 17]: 62.5 µg/mL (≈ 220 µM)
- MIC [11, 19]: 62.5 µg/mL (≈ 220 µM)

Molecule: alterporriol E
- activity against bacteria and fungi [4]: do not show any activity against bacteria and fungi

Molecule: Alterporriol A + B
- MHK (MIC) ASP [5]: 62.5 µg/mL
- MHK (MIC) STR [1, 15]: 7.8 µg/mL
- MHK (MIC) SE [2, 16]: 15.6 µg/mL
- MHK (MIC) EK [7, 18]: 15.6 µg/mL
- MHK (MIC) MRSA [3, 17]: 15.6 µg/mL

Molecule: altersolanol D
- anti-microbial activity [13]: completely ineffective

Molecule: COc1cc(O)c2c(c1)C(=O)C1=C(C[C@@H](O)[C@@](C)(O)[C@@H]1O)C2=O [altersolanol C]
- anti-microbial activity [13]: anti-microbial activity
